Patent US11945834B2, “Cyclic dinucleotides as anticancer agents” (BRISTOL-MYERS SQUIBB COMPANY, priority 2018, dated 2024)
Like-named read-outs stand apart in the source and are kept apart here.

Assays:
[1] = tested on: IRF pathway in THP1-Dual cells (STING agonists); assay: STING THP1 reporter assay, IRF pathway (Lucia luciferase); type: cell-based; settings: 10% human plasma, luciferase readout, 100% = 100 μM cGAMP, read-out: THP1 Reporter Assays EC50 (μM) IRF3
From the text: (§1) THP1-Dual™ cells were derived from the human THP-1 monocyte cell line by stable integration of two inducible reporter constructs. To this end, THP1-Dual™ cells allow the simultaneous study of the NF-κB pathway, by monitoring the activity of SEAP, and the IRF pathway by assessing the activity of a secreted luciferase (Lucia). Both reporter proteins are readily measurable in the cell culture supernatant when using QUANTI-Blue™, a SEAP detection reagent, and QUANTI-Luc™, a luciferase detection reagent.
(§2) THP1-Dual™ cells induce the activation of NF-κB in response to STING agonists. They also trigger the IRF pathway upon stimulation with STING agonists, such as cGAMP. Here, the THP-1-Dual cells were used to assess STING binders for function on the cellular level.
(§3) Serial dilutions of compounds in DMSO were added to low volume 384 well plates at 100 nl/well using an ECHO acoustic dispenser (Labcyte, model 550) to achieve final starting concentration of 100 μM in cell suspension. THP-1 Dual™ STING reporter cells (Invivogen, Dual cells cat #THPD-nfis) were added to the plates with compounds at 15,000 cells in 10 μL per well in RPMI media (Gibco, cat #11875) containing 10% human plasma in a low volume 384-well black wall clear bottom tissue culture plate (Corning, cat #3542) for SEAP assay and low volume solid white plate (Corning, cat #3826) for luciferase assay. One column of the plate was reserved for treatment with cGAMP at 100 μM for 100% activation calculation and one column for no treatment (DMSO only) for baseline activation. Plates were then incubated in 37° C. incubator at 5% CO2 for 20 hours.
(§4) In the SEAP assay, 5 μl of 2× QuantiBlue (Invivogen, cat #Rep-qb2) is added to 384 well black plates seeded with THP1 cells and incubated at 37° C. for 2 hours. Plates were read on the Envision (Perkin Elmer) at 620 nm wavelength (OD620). In the luciferase assay, 5 μl of Quantiluc (Invivogen, Rep-qlc2) is added to white 384 well plates seeded with THP1 cells and read at 5 minutes on the Envision (Perkin Elmer) using a luminescence protocol (RLU). For both cell lines, 100% activation was determined by value (RLU) of THP-1 Dual STING cells stimulated with 100 μM cGAMP (Invivogen, cat #TLRL-NACGA23-5).

[2] = tested on: NF-κB pathway in THP1-Dual cells (STING agonists); assay: STING THP1 reporter assay, NF-κB pathway (SEAP); type: cell-based; settings: 10% human plasma, SEAP readout, 100% = 100 μM cGAMP, read-out: THP1 Reporter Assays EC50 (μM) NFkB
From the text: as §1, §2, §3, §4

[3] = molecular target: T1, STING WT: His-TVMV-S-hSTING(155-341)-H232R (Homo sapiens, UniProt Q86WV6, H232R); assay: STING HTRF binding assay, STING WT; settings: 20 nM His-tagged STING cytoplasmic domain WT, 200 nM fluorescein-labeled cGAMP analog probe, one hour; read-out: HTRF Binding Assays IC50 (μM) WT
T1 construct: STING WT: His-TVMV-S-hSTING(155-341)-H232R
Method: (§5) A time resolved FRET-based competition binding assay was used to assess test article binding to STING WT and STING AQ. His-tagged STING cytoplasmic domain (WT or AQ) at a concentration of 20 nM was incubated with 2.5 nM Tb-labeled anti-His antibody, test compound, and fluorescein-labeled cGAMP analog probe (BioLog cat. no. C195) at a concentration of 200 nM (STING WT) or 40 nM (STING AQ) in PBS containing 0.005% Tween-20 and 0.1% BSA for one hour. Fluorescence at 495 nm and 520 nm was measured using an EnVision microplate reader to quantify FRET between Tb-labeled anti-His antibody and fluorescein-labeled probe. Background was defined as the signal obtained in the absence of STING protein, and background subtracted FRET ratios were normalized to the maximum signal obtained in the absence of test compound. These values were converted to a percent inhibition. Percent inhibition was determined for test compounds at 11 concentrations. The IC50, defined as the concentration of competing test compound needed to reduce specific binding of the probe by 50%, was calculated using the 4 parameter logistic equation to fit the data

[4] = molecular target: T2, STING AQ: His-TVMV-S-hSTING(155-341)-G230A-R293Q (Homo sapiens, UniProt Q86WV6, G230A/H232R/R293Q); assay: STING HTRF binding assay, STING AQ; settings: 20 nM His-tagged STING cytoplasmic domain AQ, 40 nM fluorescein-labeled cGAMP analog probe, one hour; read-out: HTRF Binding Assays IC50 (μM) AQ
T2 construct: STING AQ: His-TVMV-S-hSTING(155-341)-G230A-R293Q
Method: as §5

T2 sequence (Q86WV6 with tags, fused parts or gaps G230A/H232R/R293Q): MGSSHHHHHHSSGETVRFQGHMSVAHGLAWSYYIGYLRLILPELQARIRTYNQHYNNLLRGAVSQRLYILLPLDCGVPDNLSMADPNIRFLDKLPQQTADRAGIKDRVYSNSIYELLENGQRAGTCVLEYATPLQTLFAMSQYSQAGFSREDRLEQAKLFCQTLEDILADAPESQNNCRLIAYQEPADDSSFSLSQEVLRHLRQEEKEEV
T1 sequence (Q86WV6 with tags, fused parts or gaps H232R): as the sequence (Q86WV6 with tags, fused parts or gaps G230A/H232R/R293Q) above, with A99G, Q162R counted along it

| SMILES | EC50 ([1]; Homo sapiens, THP1-Dual, 20 h) | EC50 ([2]; Homo sapiens, THP1-Dual, 20 h) | IC50 [3] | IC50 [4] | EC50 ([1]; 20 hours) | EC50 ([2]; 20 hours) |
| --- | --- | --- | --- | --- | --- | --- |
| NC(=O)c1cc([C@@H]2O[C@@H]3COP(=O)(S)O[C@H]4[C@@H](F)[C@H](n5cnc6c(N)ncnc65)O[C@@H]4COP(=O)(S)O[C@@H]2[C@@H]3O)ccn1 (single isomer, unassigned) [Example 1-1] | 4.94 µM | 8.05 µM | 0.09 µM | 0.01 µM | – | – |
| CNC(=O)c1cc([C@@H]2O[C@@H]3COP(=O)(S)O[C@H]4[C@@H](F)[C@H](n5cnc6c(N)ncnc65)O[C@@H]4COP(=O)(S)O[C@@H]2[C@@H]3O)ccn1 (single isomer, unassigned) [Example 2-1] | > 100 µM | > 100 µM | 10.3 µM | 0.6 µM | – | – |
| CNC(=O)c1cc([C@@H]2O[C@@H]3COP(=O)(S)O[C@H]4[C@@H](F)[C@H](n5cnc6c(N)ncnc65)O[C@@H]4COP(=O)(S)O[C@@H]2[C@@H]3O)ccn1 (single isomer, unassigned) [Example 2-4] | – | – | 92.3 µM | 4.85 µM | > 100 µM | – |
| C=C1[C@H]2OP(=O)(S)OC[C@H]3O[C@@H](n4cnc5c(N)ncnc54)[C@H](F)[C@@H]3OP(=O)(S)OC[C@H]1O[C@H]2c1ccnc(C(N)=O)c1 (single isomer, unassigned) [Example 3-1] | – | – | 0.78 µM | 0.04 µM | 9.23 µM | 22.6 µM |
| C=C1[C@H]2OP(=O)(S)OC[C@H]3O[C@@H](n4cnc5c(N)ncnc54)[C@H](F)[C@@H]3OP(=O)(S)OC[C@H]1O[C@H]2c1ccnc(C(N)=O)c1 (single isomer, unassigned) [Example 3-2] | – | – | 40.9 µM | 1.64 µM | > 100 µM | > 100 µM |
| C=C1[C@H]2OP(=O)(S)OC[C@H]3O[C@@H](n4cnc5c(N)ncnc54)[C@H](F)[C@@H]3OP(=O)(S)OC[C@H]1O[C@H]2c1ccnc(C(N)=O)c1 (single isomer, unassigned) [Example 3-3] | – | – | 14.4 µM | 1.03 µM | > 100 µM | > 100 µM |
| C=C1[C@H]2OP(=O)(S)OC[C@H]3O[C@@H](n4cnc5c(N)ncnc54)[C@H](F)[C@@H]3OP(=O)(S)OC[C@H]1O[C@H]2c1ccnc(C(N)=O)c1 (single isomer, unassigned) [Example 3-4] | – | – | 1.21 µM | 0.09 µM | 7.4 µM | 19.3 µM |

The remaining lines, values ahead:

| EC50 ([1]; Homo sapiens, THP1-Dual, 20 h) | EC50 ([2]; Homo sapiens, THP1-Dual, 20 h) | IC50 [3] | IC50 [4] | EC50 ([1]; 20 hours) | EC50 ([2]; 20 hours) | SMILES |
| --- | --- | --- | --- | --- | --- | --- |
| – | – | 0.66 µM | 0.05 µM | 19 µM | 57.1 µM | NC(=O)c1cc([C@@H]2O[C@@H]3COP(=O)(S)O[C@H]4[C@@H](F)[C@H](n5cnc6c(N)ncnc65)O[C@@H]4COP(=O)(S)O[C@@H]2[C@@H]3F)ccn1 (single isomer, unassigned) [Example 4-1] |
| – | – | 0.09 µM | 0.03 µM | 0.37 µM | 1.32 µM | NC(=O)c1cc([C@@H]2O[C@@H]3COP(=O)(S)O[C@H]4[C@@H](F)[C@H](n5cnc6c(N)ncnc65)O[C@@H]4COP(=O)(S)O[C@@H]2[C@@H]3F)ccn1 (single isomer, unassigned) [Example 4-2] |
| 0.14 µM | 0.38 µM | 93.4 µM | 14 µM | – | – | NC(=O)c1cc([C@@H]2O[C@@H]3COP(=O)(S)O[C@H]4[C@@H](F)[C@H](n5cnc6c5ncn5ccnc65)O[C@@H]4COP(=O)(S)O[C@@H]2[C@@H]3O)ccn1 (single isomer, unassigned) [Example 5-2] |
